# Measured values reported in patent publication US11000033B2, “Ketone or oxime compound, and herbicide” (NISSAN CHEMICAL CORPORATION, priority 2014, dated 2021).
# Tests used:
# Type in all cases: in vivo
# [1] = tested on: Echinochloa oryzacola Vasing.; assay: Test Example 1: herbicidal activity, application before weed generation in submerged conditions (symbol A); conditions: application herbicide amount 320 g/ha
# How it was run: (§1)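 Flooded alluvial soil (4 cm water) was mixed-sown with the three weed species, and 2.5-leaf rice seedlings were transplanted. On sowing day, a water-diluted emulsion at a predetermined rate was applied to the water surface. After 3 weeks in a 25–30 °C greenhouse, effect was scored 0–5.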
# Scirpus juncoides = assay: Test Example 1: herbicidal activity, application before weed generation in submerged conditions (symbol B); conditions: application herbicide amount 320 g/ha
# How it was run: as §1
# Monochoria vaginalis = assay: Test Example 2: herbicidal activity, application during weed generation in submerged conditions (symbol C); conditions: Table 23; application herbicide amount 320 g/ha; grade 0-5 by criteria of Test Example 1
# How it was run: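 Compound was applied as a water-diluted emulsion into the standing water of flooded pots (4 cm) once co-sown weeds reached one to two leaves. Greenhouse temperature was 25° C. to 30° C., soil was alluvial, and each species was rated visually after 3 weeks.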
# Leptochloa chinensis = assay: Test Example 3: herbicidal effect by foliage application, Wagner pot (symbol D); conditions: application herbicide amount 320 g/ha
# How it was run: (§2)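 In a shallow-flooded alluvial soil system held at 25–30 °C, plants including rice grew for 14 days and were then sprayed over the foliage with emulsion diluted to a fixed herbicide amount. Visual rating followed at 3 weeks.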
# Cyperus difformis = assay: Test Example 3: herbicidal effect by foliage application, Wagner pot (symbol E); conditions: application herbicide amount 320 g/ha
# How it was run: as §2
# Digitaria ciliaris [2] = assay: Test Example 4: herbicidal effect by soil treatment (symbol F); conditions: application herbicide amount 320 g/ha
# How it was run: (§3)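 Seeds were sown in sterilized diluvial soil, covered with about 1.5 cm of soil, and the soil surface was sprayed with a water-diluted emulsion of the compound at a predetermined rate. Plants grew in a greenhouse at 25° C. to 30° C.; effects were scored visually 3 weeks after application.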
# Setaria viridis [3] = assay: Test Example 4: herbicidal effect by soil treatment (symbol G); conditions: application herbicide amount 320 g/ha
# How it was run: as §3
# [4] = tested on: Echinochloa crus-galli var. crus-galli; assay: Test Example 4: herbicidal effect by soil treatment (symbol H); conditions: application herbicide amount 320 g/ha
# How it was run: as §3
# Veronica persica = assay: Test Example 4: herbicidal effect by soil treatment (symbol R); conditions: application herbicide amount 320 g/ha
# How it was run: as §3
# beet = assay: Test Example 4: effect on crop by soil treatment (symbol f); conditions: application herbicide amount 320 g/ha
# How it was run: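 Steps: fill box with sterilized diluvial soil; sow seed spot-like; cover with ~1.5 cm soil; grow in greenhouse (25° C. to 30° C.).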
# Digitaria ciliaris [5] = assay: Test Example 5: herbicidal effect by foliage application, plastic box (symbol F); conditions: 320 g/ha, 3 weeks after application
# How it was run: (§4)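 After sowing into sterilized diluvial soil and growing two weeks under glass at 25° C. to 30° C., seedlings receive a uniform foliar spray of diluted emulsion. Damage is judged visually three weeks on.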
# Setaria viridis [6] = assay: Test Example 5: herbicidal effect by foliage application, plastic box (symbol G); conditions: 320 g/ha, 3 weeks after application
# How it was run: as §4
# Avena fatua = assay: Test Example 5: herbicidal effect by foliage application, plastic box (symbol I); conditions: 320 g/ha, 3 weeks after application
# How it was run: as §4
# Stellaria media = assay: Test Example 5: herbicidal effect by foliage application, plastic box (symbol P); conditions: 320 g/ha, 3 weeks after application
# How it was run: as §4
Structure (SMILES),"Herbicidal effect grade, A: Echinochloa oryzacola Vasing. [1]","Herbicidal effect grade, B: Scirpus juncoides (Scirpus juncoides)","Herbicidal effect grade, C: Monochoria vaginalis (Monochoria vaginalis)","herbicidal effect on D (Leptochloa chinensis), grade 0-5 (Leptochloa chinensis)","herbicidal effect on E, grade 0-5 (Cyperus difformis)","Herbicidal effect grade, F: Digitaria ciliaris (Digitaria ciliaris [2])","Herbicidal effect grade, G: Setaria viridis (Setaria viridis [3])","Herbicidal effect grade, H: Echinochloa crus-galli var. crus-galli [4]","Herbicidal effect grade, R: Veronica persica (Veronica persica)","Effect on crop grade, f: beet (beet)","I: Avena fatua, herbicidal effect (criteria of Test Example 1) (Avena fatua)","P: Stellaria media, herbicidal effect (criteria of Test Example 1) (Stellaria media)","F: Digitaria ciliaris, herbicidal effect (criteria of Test Example 1) (Digitaria ciliaris [5])","G: Setaria viridis, herbicidal effect (criteria of Test Example 1) (Setaria viridis [6])",further results
CON=C(C)CC1CC(O)=C(c2c(C)cc(-c3ccccn3)cc2C)C1=O (mixture of isomers) [6-051],4 (Herbicidal ratio of 70% or higher and lower than 90%),4 (Herbicidal ratio of 70% or higher and lower than 90%),2 (Herbicidal ratio of 20% or higher and lower than 40%),5 (Herbicidal ratio of 90% or more (almost completely withered)),5 (Herbicidal ratio of 90% or more (almost completely withered)),,,,,,,,,,"F: Digitaria ciliaris, herbicidal effect grade (Digitaria ciliaris [2]): 5 (Herbicidal ratio of 90% or more (almost completely withered)); G: Setaria viridis, herbicidal effect grade (Setaria viridis [3]): 5 (Herbicidal ratio of 90% or more (almost completely withered)); H: Echinochloa crus-galli var. crus-galli, herbicidal effect grade [4]: 5 (Herbicidal ratio of 90% or more (almost completely withered)); R: Veronica persica, herbicidal effect grade (Veronica persica): 0 (Herbicidal ratio of 5% or lower (almost no effect)); f: beet, effect on crop grade (beet): 0 (Herbicidal ratio of 5% or lower (almost no effect)); F: Digitaria ciliaris, herbicidal effect grade (Digitaria ciliaris [5]): 5 (Herbicidal ratio of 90% or more (almost completely withered)); G: Setaria viridis, herbicidal effect grade (Setaria viridis [6]): 5 (Herbicidal ratio of 90% or more (almost completely withered)); I: Avena fatua, herbicidal effect grade (Avena fatua): 4 (Herbicidal ratio of 70% or higher and lower than 90%); P: Stellaria media, herbicidal effect grade (Stellaria media): 4 (Herbicidal ratio of 70% or higher and lower than 90%)"
CON=C(C)CC1CC(OC(=O)N2CCOCC2)=C(c2c(C)cc(-c3ccc(Cl)cc3F)cc2C)C1=O (centres unmarked) [6-089],5 (Herbicidal ratio of 90% or more (almost completely withered)),3 (Herbicidal ratio of 40% or higher and lower than 70%),3 (Herbicidal ratio of 40% or higher and lower than 70%),5 (Herbicidal ratio of 90% or more (almost completely withered)),4 (Herbicidal ratio of 70% or higher and lower than 90%),5 (Herbicidal ratio of 90% or more (almost completely withered)),4 (Herbicidal ratio of 70% or higher and lower than 90%),1 (Herbicidal ratio of 5% or higher and lower than 20%),0 (Herbicidal ratio of 5% or lower (almost no effect)),0 (Herbicidal ratio of 5% or lower (almost no effect)),5 (Herbicidal ratio of 90% or more (almost completely withered)),4 (Herbicidal ratio of 70% or higher and lower than 90%),,,
CON=C(C)CC1CC(O)=C(c2c(F)cc(Br)cc2OC)C1=O (centres unmarked) [6-096],1 (Herbicidal ratio of 5% or higher and lower than 20%),0 (Herbicidal ratio of 5% or lower (almost no effect)),0 (Herbicidal ratio of 5% or lower (almost no effect)),4 (Herbicidal ratio of 70% or higher and lower than 90%),5 (Herbicidal ratio of 90% or more (almost completely withered)),4 (Herbicidal ratio of 70% or higher and lower than 90%),4 (Herbicidal ratio of 70% or higher and lower than 90%),4 (Herbicidal ratio of 70% or higher and lower than 90%),0 (Herbicidal ratio of 5% or lower (almost no effect)),0 (Herbicidal ratio of 5% or lower (almost no effect)),5 (Herbicidal ratio of 90% or more (almost completely withered)),1 (Herbicidal ratio of 5% or higher and lower than 20%),,,
CON=C(C)CC1CC(O)=C(c2c(F)cc(C)cc2OC)C1=O (centres unmarked) [6-108],4 (Herbicidal ratio of 70% or higher and lower than 90%),3 (Herbicidal ratio of 40% or higher and lower than 70%),2 (Herbicidal ratio of 20% or higher and lower than 40%),5 (Herbicidal ratio of 90% or more (almost completely withered)),,5 (Herbicidal ratio of 90% or more (almost completely withered)),4 (Herbicidal ratio of 70% or higher and lower than 90%),5 (Herbicidal ratio of 90% or more (almost completely withered)),3 (Herbicidal ratio of 40% or higher and lower than 70%),0 (Herbicidal ratio of 5% or lower (almost no effect)),5 (Herbicidal ratio of 90% or more (almost completely withered)),3 (Herbicidal ratio of 40% or higher and lower than 70%),5 (Herbicidal ratio of 90% or more (almost completely withered)),5 (Herbicidal ratio of 90% or more (almost completely withered)),
CON=C(C)CC1CC(OC(=O)N2CCCC2)=C(c2c(C)cc(C)cc2OC)C1=O (centres unmarked) [6-110],5 (Herbicidal ratio of 90% or more (almost completely withered)),3 (Herbicidal ratio of 40% or higher and lower than 70%),0 (Herbicidal ratio of 5% or lower (almost no effect)),5 (Herbicidal ratio of 90% or more (almost completely withered)),,0 (Herbicidal ratio of 5% or lower (almost no effect)),0 (Herbicidal ratio of 5% or lower (almost no effect)),5 (Herbicidal ratio of 90% or more (almost completely withered)),0 (Herbicidal ratio of 5% or lower (almost no effect)),0 (Herbicidal ratio of 5% or lower (almost no effect)),5 (Herbicidal ratio of 90% or more (almost completely withered)),1 (Herbicidal ratio of 5% or higher and lower than 20%),5 (Herbicidal ratio of 90% or more (almost completely withered)),5 (Herbicidal ratio of 90% or more (almost completely withered)),
CON=C(C)CC1CC(OC(=O)N2CCCCC2)=C(c2c(C)cc(C)cc2OC)C1=O (centres unmarked) [6-111],5 (Herbicidal ratio of 90% or more (almost completely withered)),5 (Herbicidal ratio of 90% or more (almost completely withered)),4 (Herbicidal ratio of 70% or higher and lower than 90%),5 (Herbicidal ratio of 90% or more (almost completely withered)),,4 (Herbicidal ratio of 70% or higher and lower than 90%),0 (Herbicidal ratio of 5% or lower (almost no effect)),4 (Herbicidal ratio of 70% or higher and lower than 90%),0 (Herbicidal ratio of 5% or lower (almost no effect)),0 (Herbicidal ratio of 5% or lower (almost no effect)),5 (Herbicidal ratio of 90% or more (almost completely withered)),1 (Herbicidal ratio of 5% or higher and lower than 20%),5 (Herbicidal ratio of 90% or more (almost completely withered)),5 (Herbicidal ratio of 90% or more (almost completely withered)),
